In patent publication US20230226198A1, “Artemisinin Derivatives” (DA ZEN THERANOSTICS, INC., priority 2019, published 2023):

Experiments:
Type in all cases: cell-based
[1] = tested on: DU145 cells; assay: MTT cell viability / IC50 assay, DU145; conditions: Homo sapiens, DU-145; DU145, 48 h
Procedure: (§1) Cell culture: In the following examples, unless otherwise specified, all cell lines are purchased from American Type Culture Collection and cultured in American Type Culture Collection (ATCC)-recommended media, with fetal bovine serum (FBS) to a final concentration of 10% and 1× penicillin/streptomycin at 37° C. with 5% CO2 in a cell culture incubator, unless otherwise specified. Unless otherwise specified, culture is 2D. Where culture is 3D, low attachment plates are used, with the same media. C4-2B (ATCC® CRL-3315™, human prostate cancer cells of epithelial morphology) parental cell line and drug-resistant cells derived therefrom) are cultured in RPMI-1640 with 10% FBS. MDVR cells (an Enzalutamide-resistant variety of C4-2B prostate cancer cells formed as described below) are cultured as indicated for the parental C4-2B cells. Caki-1 cells (human clear cell renal cell carcinoma cells) are cultured in ATCC-formulated McCoy's 5a Medium Modified (ATCC Catalog No. 30-2007) with 10% FBS. […]
(§2) Each of the cell lines is treated either with a THAD (e.g. DZ-DHA-ether, MI-148-bis-DHA), or for comparison, with the DHA mono-ester “DZ-DHA”; alternatively/additionally, DZ1 and/or unconjugated DHA may serve as comparants. […] The absorbance density of the supernatant is read on a 96-well microplate reader at wavelength 595 nm. […]

[2] = tested on: H446 cells; assay: MTT cell viability / IC50 assay, H446; conditions: Homo sapiens, NCI-H446, 48 h
Procedure: as §1, §2

[3] = tested on: BxPC3 cells; assay: MTT cell viability / IC50 assay, BxPC3; conditions: Homo sapiens, BXPC-3; BxPC3, 48 h
Procedure: as §1, §2

| SMILES | IC50 [1] [µM] | IC50 [2] [µM] | IC50 [3] [µM] |
| --- | --- | --- | --- |
| C[C@@H]1CC[C@H]2[C@@H](C)C(OC(=O)CCCCCN3/C(=C/C=C4\CCCC(/C=C/C5=[N+](CCCCS(=O)(=O)[O-])c6ccccc6C5(C)C)=C4Cl)C(C)(C)c4ccccc43)O[C@@H]3OC4(C)CC[C@@H]1[C@]32OO4 (stereo in doubt) [DZ3a] | 8.1 | 12.6 | 9.8 |
| C[C@H]1[C@@H](O)O[C@@H]2O[C@@]3(C)CC[C@H]4[C@H](C)CC[C@@H]1[C@@]24OO3 [DHA, dihydroartemisinin] | 295 | 287 | 50.7 |
